Patent US6740642B2, “Macrolides with antibacterial activity” (BAsilea Parmaceutica AG, priority 2000, dated 2004)
In brackets after ≈: the same amount, converted by molar mass.

What was measured:
E. coli ATCC25922 = test: MIC, standard microdilution; assay type: cell-based
Method in brief: (§1)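 Read-out is the MIC from a standard microdilution susceptibility test. The procedure was performed as laid down in the NCCLS guideline for aerobic organisms.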

[1] = system: P. aeruginosa ATCC27853 (+Ery. 32 μg/ml); test: MIC, standard microdilution; assay type: cell-based
Method in brief: as §1

S. aureus 1086 = test: MIC, standard microdilution; assay type: cell-based, Staphylococcus aureus
Method in brief: as §1

S. aureus 745 = test: MIC, standard microdilution; assay type: cell-based, Staphylococcus aureus
Method in brief: as §1

S. aureus ATCC29213 = test: MIC, standard microdilution; assay type: cell-based, Staphylococcus aureus
Method in brief: as §1

St. pneumoniae SL199T = test: MIC, standard microdilution; assay type: cell-based, Streptococcus pneumoniae
Method in brief: as §1

St. pneumoniae 12288 = test: MIC, standard microdilution; assay type: cell-based, Streptococcus pneumoniae
Method in brief: as §1

St. pneumoniae 1/1 = test: MIC, standard microdilution; assay type: cell-based, Streptococcus pneumoniae
Method in brief: as §1

St. pneumoniae 1/4 = test: MIC, standard microdilution; assay type: cell-based, Streptococcus pneumoniae
Method in brief: as §1

H. influenzae H13 LAH = test: MIC, agar dilution, HTM medium; assay type: cell-based, Haemophilus influenzae
Description: (§2) The biological activities of compounds of the present invention against Haemophilus influenzae have been determined by standard agar dilution method using HTM medium (National Committee for Clinical Laboratory Standards. 1997. Methods for dilution antimicrobial susceptibility tests for bacteria that grow aerobically, 4th edition. Approved standard M7-A4. National Committee for Clinical Laboratory Standards, Wayne, Pa.).

H. influenzae 1 = test: MIC, agar dilution, HTM medium; assay type: cell-based, Haemophilus influenzae
Description: as §2

H. influenzae 23145 = test: MIC, agar dilution, HTM medium; assay type: cell-based, Haemophilus influenzae
Description: as §2

H. influenzae 3457 = test: MIC, agar dilution, HTM medium; assay type: cell-based, Haemophilus influenzae
Description: as §2

H. influenzae 12214 = test: MIC, agar dilution, HTM medium; assay type: cell-based, Haemophilus influenzae
Description: as §2

H. influenzae 23369 = test: MIC, agar dilution, HTM medium; assay type: cell-based, Haemophilus influenzae
Description: as §2

H. influenzae H20 HDL = test: MIC, agar dilution, HTM medium; assay type: cell-based, Haemophilus influenzae
Description: as §2

H. influenzae Rd KW20 = test: MIC, agar dilution, HTM medium; assay type: cell-based, Haemophilus influenzae
Description: as §2

H. influenzae 11 = test: MIC, agar dilution, HTM medium; assay type: cell-based, Haemophilus influenzae
Description: as §2

H. influenzae ATCC 49247 = test: MIC, agar dilution, HTM medium; assay type: cell-based, Haemophilus influenzae
Description: as §2

H. influenzae QK 50 = test: MIC, agar dilution, HTM medium; assay type: cell-based, Haemophilus influenzae
Description: as §2

H. influenzae ATCC 9334 = test: MIC, agar dilution, HTM medium; assay type: cell-based, Haemophilus influenzae
Description: as §2

H. influenzae H28 HEL = test: MIC, agar dilution, HTM medium; assay type: cell-based, Haemophilus influenzae
Description: as §2

H. influenzae Christy = test: MIC, agar dilution, HTM medium; assay type: cell-based, Haemophilus influenzae
Description: as §2

H. influenzae 3640 = test: MIC, agar dilution, HTM medium; assay type: cell-based, Haemophilus influenzae
Description: as §2

H. influenzae 4139 = test: MIC, agar dilution, HTM medium; assay type: cell-based, Haemophilus influenzae
Description: as §2

H. influenzae QK 12/87 = test: MIC, agar dilution, HTM medium; assay type: cell-based, Haemophilus influenzae
Description: as §2

H. influenzae H36 ODL = test: MIC, agar dilution, HTM medium; assay type: cell-based, Haemophilus influenzae
Description: as §2

H. influenzae 3201 = test: MIC, agar dilution, HTM medium; assay type: cell-based, Haemophilus influenzae
Description: as §2

H. influenzae B 1501 = test: MIC, agar dilution, HTM medium; assay type: cell-based, Haemophilus influenzae
Description: as §2

H. influenzae 2947 = test: MIC, agar dilution, HTM medium; assay type: cell-based, Haemophilus influenzae
Description: as §2

CC[C@H]1OC(=O)[C@H](C)C(=O)[C@H](C)[C@@H](O[C@@H]2O[C@H](C)C[C@H](N(C)C)[C@H]2O)[C@](C)(OC)C[C@@H](C)C(=O)[C@H](C)[C@H]2[C@H](SCCn3ccc(=O)[nH]c3=O)C(=O)O[C@@]21C [Compound I-6, (3S,3aR,4R,6R,8R,9R,10R,12R,15R,15aS)-15-Ethyloctahydro-8-methoxy-4,6,8,10,12,15a-hexamethyl-3-[[2-[2,4-1H,3H-pyriminedione-1-yl]ethyl]-thio]-9-[[3,4,6-trideoxy-3-(dimethylamino)-β-D-xylo-hexopyranosyl]oxy]-2H-furo[2,3-c]oxacyclotetradecin-2,5,11,13(3H,6H,12H)-tetrone]
minimum inhibitory concentration (MIC) (E. coli ATCC25922): >16 µg/mL | minimum inhibitory concentration (MIC) [1]: >16 µg/mL | minimum inhibitory concentration (MIC) (S. aureus 1086): <=0.12 μg/ml | minimum inhibitory concentration (MIC) (S. aureus 745): >16 µg/mL | minimum inhibitory concentration (MIC) (S. aureus ATCC29213): <=0.12 μg/ml | minimum inhibitory concentration (MIC) (St. pneumoniae SL199T): 1 µg/mL (≈ 1.28 µM) | minimum inhibitory concentration (MIC) (St. pneumoniae 12288): 4 µg/mL (≈ 5.12 µM) | minimum inhibitory concentration (MIC) (St. pneumoniae 1/1): <=0.12 μg/ml | minimum inhibitory concentration (MIC) (St. pneumoniae 1/4): <=0.12 μg/ml | MIC (H. influenzae H13 LAH): 2 µg/mL (≈ 2.56 µM) | MIC (H. influenzae 1): 4 µg/mL (≈ 5.12 µM) | MIC (H. influenzae 23145): 4 µg/mL (≈ 5.12 µM) | MIC (H. influenzae 3457): 0.25 µg/mL (≈ 0.32 µM) | MIC (H. influenzae 12214): 4 µg/mL (≈ 5.12 µM) | MIC (H. influenzae 23369): 4 µg/mL (≈ 5.12 µM) | MIC (H. influenzae H20 HDL): 1 µg/mL (≈ 1.28 µM) | MIC (H. influenzae Rd KW20): 2 µg/mL (≈ 2.56 µM) | MIC (H. influenzae 11): 4 µg/mL (≈ 5.12 µM) | MIC (H. influenzae ATCC 49247): 2 µg/mL (≈ 2.56 µM) | MIC (H. influenzae QK 50): 2 µg/mL (≈ 2.56 µM) | MIC (H. influenzae ATCC 9334): 2 µg/mL (≈ 2.56 µM) | MIC (H. influenzae H28 HEL): 2 µg/mL (≈ 2.56 µM) | MIC (H. influenzae Christy): 2 µg/mL (≈ 2.56 µM) | MIC (H. influenzae 3640): 2 µg/mL (≈ 2.56 µM) | MIC (H. influenzae 4139): 2 µg/mL (≈ 2.56 µM) | MIC (H. influenzae QK 12/87): 1 µg/mL (≈ 1.28 µM) | MIC (H. influenzae H36 ODL): 4 µg/mL (≈ 5.12 µM) | MIC (H. influenzae 3201): 4 µg/mL (≈ 5.12 µM) | MIC (H. influenzae B 1501): 2 µg/mL (≈ 2.56 µM) | MIC (H. influenzae 2947): 4 µg/mL (≈ 5.12 µM)
